These results are taken from PMC5038302 (Antimicrobial Agents and Chemotherapy, 2016).

For series [1], the target named is T1, VIM-2 (Escherichia coli, UniProt Q5U7L7). Kind of series: biochemical.
Series [2] addresses T2, VIM-4 (Pseudomonas aeruginosa, UniProt Q8KRJ3). It is filed as biochemical. To be noted: read-out: Approximate Ki value (reflecting Km), from a single avibactam concentration (1 mM), ceftazidime 30 µM substrate.
The test system of series [3] is SPM-1. In kind it is biochemical.
The target in series [4] is T3, NDM-1 (Klebsiella pneumoniae, UniProt C7C422). The series is described as follows: biochemical.
In series [5] the target is T4, IMP-1 (Serratia marcescens, UniProt P52699). The series is described as follows: biochemical. To be noted: Approximate Ki (= Km) value, from a single avibactam concentration (1 mM), ceftazidime 30 µM substrate.
For series [6], the target named is T5, FEZ-1 (Fluoribacter gormanii, UniProt Q9K578). The series is described as follows: biochemical. The arrangement: species or system Fluoribacter (Legionella) gormanii. Conditions: Approximate Ki (= Km) value, from a single avibactam concentration (1 mM), ceftazidime 30 µM substrate.
In series [7] the target is T3, NDM-1. It is filed as binding. Conditions: avibactam 4 mM, Tris-D11 50 mM pH 7.5.
Series [8] concerns the target T1, VIM-2. In kind it is binding. To be noted: VIM-2 80 μM, avibactam 4 mM, Tris-D11 50 mM pH 7.5.
The target in series [9] is T2, VIM-4. It is filed as binding. Conditions: VIM-4 80 μM, avibactam 4 mM, Tris-D11 50 mM pH 7.5.
The next series has as its target BcII (Bacillus cereus, UniProt P04190). In kind it is binding. To be noted: BcII 80 μM, avibactam 4 mM, Tris-D11 50 mM pH 7.5. The method, then: (§1) Typical experimental parameters for Carr-Purcell-Meiboom-Gill (CPMG) NMR spectroscopy were the following: total echo time, 40 ms; relaxation delay, 2 s; and number of transients, 264 ([31]). The PROJECT-CPMG sequence (90°x-[τ-180°y-τ-90°y-τ-180°y-τ]n-acq) was applied. Water suppression was achieved by presaturation. Prior to Fourier transformation, the data were multiplied with an exponential function with 3-Hz line broadening.
(§2) For ^1H excitation sculpting suppression with perfect echo NMR experiments, spectra were typically obtained using 256 scans and a relaxation delay of 1 s ([32]). A 2-ms sinc pulse was used for water suppression. Prior to Fourier transformation, data were multiplied with an exponential function with 2-Hz line broadening.
(§3) For water-ligand observed gradient spectroscopy (wLOGSY) analyses, typical experimental parameters were the following: mixing time, 1 s; relaxation delay, 2 s; number of transients, 256 ([33]). Solvent excitation was achieved using a 16-ms 180° selective rectangular shape pulse with 1,000 points (Squa100.1000) set at the H2O frequency. Water suppression was achieved by a 2-ms sinc pulse (Sinc1.1000) at the H2O frequency.

Series [10] concerns SPM-1. It is filed as binding. The protocol: as §1, §2, §3
Series [11] has as its target T5, FEZ-1. In kind it is binding, Fluoribacter (Legionella) gormanii. Conditions: FEZ-1 80 μM, avibactam 4 mM, Tris-D11 50 mM pH 7.5.
For the next series, the target named is CphA (Aeromonas hydrophila, UniProt P26918). In kind it is binding. Conditions: CphA 80 μM, avibactam 4 mM, Tris-D11 50 mM pH 7.5.
In series [12] the target is T2, VIM-4. To be noted: 1 mM avibactam (600 μl), 12 μg VIM-4, 5 mM HEPES pH 7.5, 20 μM ZnCl2, 4 h at 37°C.
Series [13] concerns the target T3, NDM-1. To be noted: NDM-1 0.022 mM; still extremely slow by normal β-lactamase standards.
In series [14] the target is T2, VIM-4. Conditions: still extremely slow by normal β-lactamase standards.
Series [15] concerns the target T2, VIM-4. Conditions: VIM-4, 240 min, Raman spectroscopy.
The target of series [16] is T2, VIM-4. To be noted: LC-MS.
Series [17] can be described thus: Stability of avibactam in buffer without enzyme (NMR control). To be noted: buffer (Tris-D11 50 mM, pH 7.5).
For series [18], the system named is all of the MBLs (VIM-2, VIM-4, SPM-1, NDM-1, IMP-1, FEZ-1). The series is described as follows: Complete time courses of ceftazidime hydrolysis. It is filed as biochemical. Conditions: all MBLs incl. VIM-4; concluded from quasi first-order complete time courses, 5 mM HEPES pH 7.5.
Series [19] relates to SPM-1. More on the design: method as in PMID 12543663. To be noted: reported conditions different, read-out: ceftazidime Km; cited from earlier work.
Series [20] deals with T5, FEZ-1. The arrangement: method as in PMID 11257043. Conditions: reported conditions different, read-out: ceftazidime Km; cited from earlier work.
Series [21] deals with T1, VIM-2. Conditions: cited from earlier work.
Series [22] addresses T3, NDM-1. Conditions: cited from earlier work.
Series [23] addresses T4, IMP-1. To be noted: cited from earlier work.
Series [24] deals with NC(=O)[C@@H]1CC[C@@H]2CN1C(=O)N2OS(=O)(=O)O. Kind of series: purified protein, by the assay type.

“And” between values parts separate entries of the source, which are not always exact repeats. Equal values may be shown once. Read-outs that look alike come from different tables or passages of the source.

T5 sequence (Q9K578 21-282 limits assumed): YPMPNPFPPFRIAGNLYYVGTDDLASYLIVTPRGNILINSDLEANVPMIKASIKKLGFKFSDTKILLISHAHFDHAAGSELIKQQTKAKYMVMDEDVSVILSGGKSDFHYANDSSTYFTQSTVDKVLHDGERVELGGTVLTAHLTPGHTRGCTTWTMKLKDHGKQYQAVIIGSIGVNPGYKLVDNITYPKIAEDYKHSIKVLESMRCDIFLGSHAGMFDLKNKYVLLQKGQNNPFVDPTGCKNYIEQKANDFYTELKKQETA
T3 sequence (C7C422 43-270 limits assumed, looked up, species assumed): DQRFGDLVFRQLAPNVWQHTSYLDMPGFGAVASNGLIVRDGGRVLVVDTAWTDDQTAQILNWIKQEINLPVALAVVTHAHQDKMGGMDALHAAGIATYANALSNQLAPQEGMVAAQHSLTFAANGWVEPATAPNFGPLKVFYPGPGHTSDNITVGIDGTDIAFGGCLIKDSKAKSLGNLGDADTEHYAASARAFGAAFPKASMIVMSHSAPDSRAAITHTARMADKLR
T4 sequence (P52699 19-246 limits assumed): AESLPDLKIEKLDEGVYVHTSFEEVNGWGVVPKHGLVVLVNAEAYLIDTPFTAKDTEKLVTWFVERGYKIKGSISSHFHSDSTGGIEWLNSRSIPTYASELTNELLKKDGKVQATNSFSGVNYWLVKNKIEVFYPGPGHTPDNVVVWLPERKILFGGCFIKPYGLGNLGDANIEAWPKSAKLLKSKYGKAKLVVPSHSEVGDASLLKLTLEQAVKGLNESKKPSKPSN
CphA, sequence (P26918 28-254): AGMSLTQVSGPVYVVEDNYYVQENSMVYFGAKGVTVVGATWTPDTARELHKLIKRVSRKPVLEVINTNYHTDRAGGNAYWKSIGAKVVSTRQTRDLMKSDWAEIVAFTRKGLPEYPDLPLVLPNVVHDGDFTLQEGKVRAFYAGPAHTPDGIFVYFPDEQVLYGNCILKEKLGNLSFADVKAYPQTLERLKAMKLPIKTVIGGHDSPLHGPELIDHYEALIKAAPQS
BcII, sequence (P04190 31-257): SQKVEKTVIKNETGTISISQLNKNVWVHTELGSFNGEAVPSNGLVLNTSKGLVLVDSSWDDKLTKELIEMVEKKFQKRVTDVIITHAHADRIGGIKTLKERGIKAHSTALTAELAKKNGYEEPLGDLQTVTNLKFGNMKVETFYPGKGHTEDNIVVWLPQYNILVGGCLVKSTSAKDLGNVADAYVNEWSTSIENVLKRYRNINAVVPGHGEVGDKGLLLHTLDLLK

Consider `NC(=O)[C@@H]1CC[C@@H]2CN1C(=O)N2OS(=O)(=O)O` [avibactam], for which the Ki at VIM-2 [1] is > 5000 µM; at VIM-4 [2] it was > 5000 µM; on NDM-1 [4] it was > 5000 µM; on IMP-1 [5], 1700 µM and ~1700 µM; on FEZ-1 [6], 2300 µM and ~2300 µM. Further, the “Effect of avibactam on SPM-1-catalyzed ceftazidime hydrolysis” value in the series on SPM-1 [3] (1 mM avibactam, ceftazidime 30 µM) is recorded as “apparent activation”. The Residual activity with SPM-1 [3] (ceftazidime (30 µM) in the presence of 1 mM avibactam, HEPES buffer, 30°C) is recorded as 140 + 15%. Besides, the “Binding by 1H CPMG NMR” value on NDM-1 [7] was “weak binding”; on VIM-2 [8], “weak binding”; at VIM-4 [9], “weak binding”; at BcII, “did not observe binding”; in the series with SPM-1 [10] (SPM-1 80 μM, avibactam 4 mM, Tris-D11 50 mM pH 7.5) it was “weak binding”; at FEZ-1 [11], “weak binding”. The “Binding by 1H CPMG NMR” value at CphA is recorded as “did not observe binding”. Moreover, the “Avibactam hydrolyzed (from absorbance at 230 nm)” value on VIM-4 [12] is ~70%. The “Avibactam hydrolysis observed by NMR” value on NDM-1 [13] and at VIM-4 [14] was “more efficient hydrolysis” each time. In addition, the “Amount of sulfate produced from avibactam (of the total avibactam product)” value on VIM-4 [15] is given as < 15%. Moreover, the “Reduction of the avibactam MS signal after VIM-4-catalyzed hydrolysis” value on VIM-4 [16] was ~50 fold. In addition, the “Hydrolysis of avibactam without enzyme” value in series [17] was “did not lead to detectable product levels”.

Turning to `CC(C)(O/N=C(\C(=O)N[C@@H]1C(=O)N2C(C(=O)[O-])=C(C[n+]3ccccc3)CS[C@H]12)c1csc(N)n1)C(=O)O` [ceftazidime], the Michaelis-Menten constant (Km) in [18] was > 30 µM; in the series with SPM-1 [19] it was 46 µM; on FEZ-1 [20], > 1000 µM; at VIM-2 [21] it was 72 µM; at NDM-1 [22] it was 180 µM; on IMP-1 [23], 46 µM.

`NC(=O)[C@@H]1CC[C@@H](NOS(=O)(=O)O)CN1` [hydrolyzed product(s)]: the “Binding of products of avibactam by wLOGSY NMR” value with SPM-1 [10] (SPM-1, hydrolyzed product NOE sign opposite to that of SPM-1 (free ligand)) is reported as “no evidence for binding”.

Turning to FEZ-1 (Fluoribacter gormanii), the specificity constant (kcat/Km) in [24] turned out to be 70 ± 15 M⁻¹ s⁻¹; in series [24] (pH 7.5, 30.0 °C), 70 ± 15 M⁻¹ s⁻¹.

What is called Km is the substrate concentration at which the rate is half of its maximum. By kcat/Km is commonly meant the turnover number divided by the Michaelis constant.
